Assay results taken from patent US10099993B2, “Metabotropic glutamate receptor positive allosteric modulators (PAMS) and uses thereof” (Sanford-Burnham Medical Research Institute, priority 2014, dated 2018).
Each block holds one compound with its values, some of them ahead of it.

Experiments:
mGlu3 = mGlu3 (Rattus norvegicus (Rat), UniProt P31422); experiment: mGlu3 GIRK thallium flux assay; conditions: for EC50: read-out: mGlu3 PAM EC50, test compound, then EC20 glutamate […] later in the presence of thallium; for EC50 / mGlu3 PAM Max: PAM mode, mean ± SEM; for Emax: read-out: mGlu3 PAM Max; for mGlu3 PAM Max: % Glutamate Max;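 for all read-outs here: kinetic fluorescence slope read shortly after thallium plus agonist addition, scaled between vehicle and maximal agonist control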
mGlu3, sequence (P31422 23-879): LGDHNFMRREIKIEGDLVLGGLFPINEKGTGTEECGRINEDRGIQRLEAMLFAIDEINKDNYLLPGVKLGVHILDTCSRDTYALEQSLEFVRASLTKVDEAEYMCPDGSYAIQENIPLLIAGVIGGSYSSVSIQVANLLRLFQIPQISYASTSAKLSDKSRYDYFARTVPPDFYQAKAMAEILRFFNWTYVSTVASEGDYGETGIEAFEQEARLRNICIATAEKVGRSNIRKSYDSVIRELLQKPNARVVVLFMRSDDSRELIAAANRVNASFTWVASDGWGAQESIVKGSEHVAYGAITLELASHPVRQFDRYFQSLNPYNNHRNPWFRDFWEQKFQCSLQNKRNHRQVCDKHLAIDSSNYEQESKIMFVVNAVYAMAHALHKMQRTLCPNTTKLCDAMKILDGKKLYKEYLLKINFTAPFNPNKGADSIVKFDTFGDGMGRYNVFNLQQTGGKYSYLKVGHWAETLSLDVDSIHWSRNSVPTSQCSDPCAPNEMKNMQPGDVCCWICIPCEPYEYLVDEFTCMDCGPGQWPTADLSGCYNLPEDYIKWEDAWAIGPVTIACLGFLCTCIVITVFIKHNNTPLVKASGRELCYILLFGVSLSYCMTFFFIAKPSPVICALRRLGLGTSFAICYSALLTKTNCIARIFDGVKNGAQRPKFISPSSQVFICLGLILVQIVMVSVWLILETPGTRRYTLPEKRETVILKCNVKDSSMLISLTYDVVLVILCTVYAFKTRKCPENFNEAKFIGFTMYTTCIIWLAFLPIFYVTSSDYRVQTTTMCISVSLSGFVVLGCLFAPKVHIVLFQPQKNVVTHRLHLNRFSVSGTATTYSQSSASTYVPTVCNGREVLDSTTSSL

mGlu2 = mGlu2 (Rattus norvegicus (Rat), UniProt P31421); experiment: mGlu2 GIRK thallium flux assay; conditions: for EC50: read-out: mGlu2 PAM EC50, test compound, then EC20 glutamate […] later in the presence of thallium; for EC50 / mGlu2 PAM Max: PAM mode, mean ± SEM, at least three experiments; for Emax: read-out: mGlu2 PAM Max; for mGlu2 PAM Max: % Glutamate Max;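 for all read-outs here: Cell-based assay, rate of fluorescence rise right after thallium plus agonist addition read on a kinetic imaging plate reader, normalized to vehicle and maximal agonist control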
mGlu2, sequence (P31421 19-872): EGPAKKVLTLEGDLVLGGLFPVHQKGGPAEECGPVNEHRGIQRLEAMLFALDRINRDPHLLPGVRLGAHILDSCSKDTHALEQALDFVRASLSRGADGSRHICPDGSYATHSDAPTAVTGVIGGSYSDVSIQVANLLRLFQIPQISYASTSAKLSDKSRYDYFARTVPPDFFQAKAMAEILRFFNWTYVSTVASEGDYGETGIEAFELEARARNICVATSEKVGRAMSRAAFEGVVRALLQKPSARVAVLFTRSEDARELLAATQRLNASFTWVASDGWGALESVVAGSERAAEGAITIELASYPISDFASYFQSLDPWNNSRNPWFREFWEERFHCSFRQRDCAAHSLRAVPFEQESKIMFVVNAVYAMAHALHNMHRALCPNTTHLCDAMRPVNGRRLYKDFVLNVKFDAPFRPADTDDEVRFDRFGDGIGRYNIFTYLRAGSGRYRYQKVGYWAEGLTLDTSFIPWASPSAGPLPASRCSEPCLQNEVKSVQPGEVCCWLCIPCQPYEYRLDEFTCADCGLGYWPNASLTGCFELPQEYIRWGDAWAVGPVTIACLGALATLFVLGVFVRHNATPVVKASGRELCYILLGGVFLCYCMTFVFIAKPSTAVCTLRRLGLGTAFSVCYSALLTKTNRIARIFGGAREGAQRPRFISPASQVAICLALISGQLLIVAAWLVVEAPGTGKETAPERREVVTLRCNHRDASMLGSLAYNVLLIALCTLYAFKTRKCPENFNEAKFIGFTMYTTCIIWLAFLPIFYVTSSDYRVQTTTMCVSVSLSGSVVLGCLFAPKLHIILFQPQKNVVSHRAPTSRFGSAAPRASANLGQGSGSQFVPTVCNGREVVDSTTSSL

Compound: CNC(=O)c1ccc(OC)c(OCCCCOc2ccc(C(=O)CC(C)(C)C)c(O)c2C)c1 [compound 102, 3-(4-(4-(3,3-Dimethylbutanoyl)-3-hydroxy-2-methylphenoxy)butoxy)-4-methoxy-N-methylbenzamide]
- EC50 (mGlu3): > 10 µM
- Emax (mGlu3): 39.2 ± 5.2%
- EC50 (mGlu2): 5.16 ± 0.082 µM
- Emax (mGlu2): 70.9 ± 2.3%

Compound: Cc1c(OCCCCOc2ccccn2)ccc(C(=O)CC(C)C)c1C [Compound 183]
- EC50 (mGlu3): > 30 µM
- EC50 (mGlu2): > 10 µM

Compound: Cc1c(OCCCCOc2ccc(F)c(C(=O)O)c2)ccc(C(=O)CC2CCCC2)c1C [Compound 35, 5-(4-(4-(2-Cyclopentylacetyl)-2,3-dimethylphenoxy)butoxy)-2-fluorobenzoic acid]
- EC50 (mGlu3): > 30 µM
- EC50 (mGlu2): > 30 µM

Compound: Cc1c(OCc2cnc(-c3cccc(C(=O)O)c3)cn2)ccc(C(=O)CC(C)(C)C)c1O [compound 163, 3-(5-((4-(3,3-Dimethylbutanoyl)-3-hydroxy-2-methylphenoxy)methyl)pyrazin-2-yl)benzoic acid]
- EC50 (mGlu3): 0.268 ± 0.005 µM
- Emax (mGlu3): 113 ± 5.4%
- EC50 (mGlu2): 1.45 ± 0.015 µM
- Emax (mGlu2): 105 ± 1.6%

Compound: COc1ccc(B(O)O)cc1OCCCCOc1ccc(C(=O)CC(C)(C)C)c(O)c1C [compound 95, (3-(4-(4-(3,3-Dimethylbutanoyl)-3-hydroxy-2-methylphenoxy)butoxy)-4-methoxyphenyl)boronic acid]
- EC50 (mGlu3): > 30 µM
- Emax (mGlu3): 26.2 ± 11.7%
- EC50 (mGlu2): 3.01 ± 0.988 µM
- Emax (mGlu2): 27.5 ± 2.7%

Compound: Cc1c(OCc2cccc(-c3cccc(C(=O)O)c3)c2)ccc(C(=O)C(C)C)c1O [compound 131, 3′-((3-Hydroxy-4-isobutyryl-2-methylphenoxy)methyl)-[1,1′-biphenyl]-3-carboxylic acid]
- EC50 (mGlu3): 1.75 ± 0.891 µM
- Emax (mGlu3): 55 ± 24.4%
- EC50 (mGlu2): 0.222 ± 0.082 µM
- Emax (mGlu2): 83.2 ± 12.3%

Compound: COC(=O)c1ccc(OCCCCOc2ccc(C(=O)CC(C)C)c(C)c2C)cc1 [Compound 14, Methyl 4-(4-(2,3-dimethyl-4-(3-methylbutanoyl)phenoxy)butoxy)benzoate]
- EC50 (mGlu3): > 30 µM
- EC50 (mGlu2): > 30 µM

Compound: CCCc1c(OCCCCOc2ccc(C(=O)O)cc2C)ccc(C(C)=O)c1O [Compound 191, 4-(4-(4-Acetyl-3-hydroxy-2-propylphenoxy)butoxy)-3-methylbenzoic acid]
- Emax (mGlu3): 0.1 ± 7.7%
- Emax (mGlu2): 43.8 ± 5.4%

Compound: Cc1c(OCc2cccc(-c3ccc(Cl)c(C(=O)O)c3)c2)ccc(C(=O)CC(C)C)c1O [compound 172]
- EC50 (mGlu3): > 10 µM
- mGlu2 PAM Max (mGlu2): 73.7 ± 1.2%
- EC50 (mGlu2): 0.763 ± 0.04 µM

Compound: Cc1c(OCCCCOc2cccc(C(=O)O)c2)ccc(C(=O)CC(C)C)c1C [Compound 22, 3-(4-(2,3-Dimethyl-4-(3-methylbutanoyl)phenoxy)butoxy)benzoic acid]
- EC50 (mGlu3): > 30 µM
- EC50 (mGlu2): > 30 µM

Compound: Cc1c(OCc2cccc(-c3ccc(C(=O)O)cc3Cl)c2)ccc(C(=O)CC(C)(C)C)c1O [compound 147, 2-Chloro-3′-((4-(3,3-dimethylbutanoyl)-3-hydroxy-2-methylphenoxy)methyl)-[1,1′-biphenyl]-4-carboxylic acid]
- EC50 (mGlu3): 2.28 ± 0.827 µM
- Emax (mGlu3): 81.4 ± 9.7%
- EC50 (mGlu2): 0.46 ± 0.158 µM
- Emax (mGlu2): 98.6 ± 5.7%

Compound: Cc1c(OCCCCOc2ccc(C#N)cc2)ccc(C(=O)CC(C)C)c1C [compound 77]
- EC50 (mGlu3): > 30 µM
- EC50 (mGlu2): > 30 µM

Compound: COc1ccc(C(=O)NC2CCCC2)cc1OCCCCOc1ccc(C(=O)CC(C)(C)C)c(O)c1C [compound 112, N-Cyclopentyl-3-(4-(4-(3,3-dimethylbutanoyl)-3-hydroxy-2-methylphenoxy)butoxy)-4-methoxybenzamide]
- EC50 (mGlu3): > 30 µM
- Emax (mGlu3): 40.3 ± 1.6%
- EC50 (mGlu2): > 10 µM
- Emax (mGlu2): 35 ± 5.8%

Compound: COc1ccc(/C(N)=N/O)cc1OCCCCOc1ccc(C(=O)CC(C)(C)C)c(O)c1C [compound 97, (Z)-3-(4-(4-(3,3-Dimethylbutanoyl)-3-hydroxy-2-methylphenoxy)butoxy)-N′-hydroxy-4-methoxybenzimidamide]
- EC50 (mGlu3): > 30 µM
- Emax (mGlu3): 24.4 ± 4.7%
- EC50 (mGlu2): > 10 µM
- Emax (mGlu2): 57.2 ± 1.4%

Compound: Cc1c(OCCCCOc2ccccn2)ccc(C(=O)CC2CCCC2)c1C [Compound 194]
- EC50 (mGlu3): > 30 µM
- EC50 (mGlu2): > 10 µM

Compound: Cc1c(OCc2cccc(-c3ccc(Cl)c(C(=O)O)c3)c2)ccc(C(=O)CC(C)C)c1O [compound 169]
- mGlu3 PAM Max (mGlu3): 76.1 ± 5.1%
- EC50 (mGlu3): 2.99 ± 0.359 µM
- mGlu2 PAM Max (mGlu2): 77.6 ± 1.8%
- EC50 (mGlu2): 0.278 ± 0.049 µM

- Emax (mGlu3): 74 ± 9.5%
- Emax (mGlu2): 79.5 ± 20.8%
Compound: CC(C)(C)CC(=O)c1ccc(OCc2cccc(-c3cccc(C(=O)O)c3)c2)c(Br)c1O [Compound 193, 3′-((2-Bromo-4-(3,3-dimethylbutanoyl)-3-hydroxyphenoxy)methyl)-[1,1′-biphenyl]-3-carboxylic acid]

Compound: COC(=O)c1ccc(OCCCCOc2ccc(C(=O)CC3CCCC3)c(O)c2C)cc1 [Compound 17, Methyl 4-(4-(4-(2-cyclopentylacetyl)-3-hydroxy-2-methylphenoxy)butoxy)benzoate]
- EC50 (mGlu3): > 30 µM
- EC50 (mGlu2): > 30 µM

- Emax (mGlu3): 103 ± 1.7%
- Emax (mGlu2): 105 ± 2.1%
Compound: Cc1c(OCc2cccc(-c3cccc(C(=O)NS(C)(=O)=O)c3)c2)ccc(C(=O)CC(C)(C)C)c1O [compound 156, 3′-((4-(3,3-Dimethylbutanoyl)-3-hydroxy-2-methylphenoxy)methyl)-N-(methylsulfonyl)-[1,1′-biphenyl]-3-carboxamide]

Compound: Cc1c(OCCCCOc2ccc3c(c2)B(O)OC3)ccc(C(=O)CC(C)(C)C)c1O [compound 94, 1-(2-Hydroxy-4-(4-((1-hydroxy-1,3-dihydrobenzo [c][1,2]oxaborol-6-yl)oxy)butoxy)-3-methylphenyl)-3,3-dimethylbutan-1-one]
- Emax (mGlu3): 94 ± 3.8%
- Emax (mGlu2): 83.9 ± 3.4%

Compound: Cc1c(OCc2cccc(-c3cccc(CC(=O)O)c3)c2)ccc(C(=O)CC(C)(C)C)c1O [compound 145, 2-(3′-((4-(3,3-dimethylbutanoyl)-3-hydroxy-2-methylphenoxy)methyl)-[1,1′-biphenyl]-3-yl)acetic acid]
- EC50 (mGlu3): 3.94 ± 1.32 µM
- Emax (mGlu3): 79.1 ± 15%
- EC50 (mGlu2): 1.36 ± 0.259 µM
- Emax (mGlu2): 93.4 ± 11.4%

Compound: COc1ccc(C(=O)N2CCN(S(C)(=O)=O)CC2)cc1OCCCCOc1ccc(C(=O)CC(C)(C)C)c(O)c1C [compound 107, 1-{2-Hydroxy-4-[4-(2-methoxy-5-{[4-(methylsulfonyl)piperazinyl]carbonyl}phenoxy)butoxy]-3-methylphenyl}-3,3-dimethylbutan-1-one]
- mGlu3 PAM Max (mGlu3): 22.9 ± 1.5%
- EC50 (mGlu3): > 30 µM
- mGlu2 PAM Max (mGlu2): 22.1 ± 1.1%
- EC50 (mGlu2): > 30 µM

Compound: COc1ccc(-c2noc(=S)[nH]2)cc1OCCCCOc1ccc(C(=O)CC(C)(C)C)c(O)c1C [compound 99, 1-(2-Hydroxy-4-(4-(2-methoxy-5-(5-thioxo-4,5-dihydro-1,2,4-oxadiazol-3-yl)phenoxy)butoxy)-3-methylphenyl)-3,3-dimethylbutan-1-one]
- EC50 (mGlu3): 1.15 ± 0.307 µM
- Emax (mGlu3): 63.6 ± 5%
- EC50 (mGlu2): 1.03 ± 0.07 µM
- Emax (mGlu2): 81%

Compound: COc1ccc(C(=O)NC(C)(C)C)cc1OCCCCOc1ccc(C(=O)CC(C)(C)C)c(O)c1C [compound 108, N-(tert-Butyl)-3-(4-(4-(3,3-dimethylbutanoyl)-3-hydroxy-2-methylphenoxy)butoxy)-4-methoxybenzamide]
- EC50 (mGlu3): > 30 µM
- Emax (mGlu3): 33.4 ± 5.3%
- EC50 (mGlu2): > 10 µM
- Emax (mGlu2): 38.6 ± 1.1%

Compound: CCCc1c(OCCCCOc2ccc(C(=O)O)cc2OC)ccc(C(C)=O)c1O [Compound 190, 4-(4-(4-Acetyl-3-hydroxy-2-propylphenoxy)butoxy)-3-methoxybenzoic acid]
- Emax (mGlu3): 12.1 ± 12.8%
- Emax (mGlu2): 64.9 ± 5.1%

Compound: Cc1c(OCc2ccc(-c3cccc(C(=O)O)c3)cc2)ccc(C(=O)CC(C)(C)C)c1O [compound 142, 4′-((4-(3,3-Dimethylbutanoyl)-3-hydroxy-2-methylphenoxy)methyl)-[1,1′-biphenyl]-3-carboxylic acid]
- EC50 (mGlu3): 2.2 ± 0.753 µM
- Emax (mGlu3): 88.7 ± 9.5%
- EC50 (mGlu2): 3.18 ± 0.626 µM
- Emax (mGlu2): 97.1 ± 8.2%

Compound: Cc1c(OCc2cccc(-c3cccc(C(=O)O)c3)c2)ccc(C(=O)CC2CCCC2)c1O [compound 129, 3′-((4-(2-Cyclopentylacetyl)-3-hydroxy-2-methylphenoxy)methyl)-[1,1′-biphenyl]-3-carboxylic acid]
- EC50 (mGlu3): 3.56 ± 1.94 µM
- Emax (mGlu3): 94 ± 10.1%
- EC50 (mGlu2): 0.616 ± 0.217 µM
- Emax (mGlu2): 97.5 ± 9%

Compound: Cc1c(OCc2cccc(COc3ccc(C#N)cc3)c2)ccc(C(=O)CC(C)C)c1O [compound 118]
- EC50 (mGlu3): > 30 µM
- EC50 (mGlu2): > 30 µM

Compound: Cc1c(OCCCCOc2ccc(CCC(=O)O)c(O)c2)ccc(C(=O)CC(C)C)c1C [compound 111]
- EC50 (mGlu3): > 30 µM
- EC50 (mGlu2): > 10 µM

Compound: COC(=O)c1ccc(OCc2cccc(COc3ccc(C(=O)CC(C)C)c(C)c3C)c2)cc1 [compound 116]
- EC50 (mGlu3): > 30 µM
- EC50 (mGlu2): > 30 µM

Compound: Cc1c(OCc2cc(-c3cccc(C(=O)O)c3)ccn2)ccc(C(=O)CC(C)(C)C)c1O [compound 153, 3-(2-((4-(3,3-Dimethylbutanoyl)-3-hydroxy-2-methylphenoxy)methyl)pyridin-4-yl)benzoic acid]
- EC50 (mGlu3): 0.158 ± 0.002 µM
- Emax (mGlu3): 107 ± 5.5%
- EC50 (mGlu2): 0.209 ± 0.003 µM
- Emax (mGlu2): 106 ± 3.9%

Compound: Cc1c(OCc2ccnc(-c3cccc(C(=O)O)c3)c2)ccc(C(=O)CC(C)(C)C)c1O [compound 149, 3-(4-((4-(3,3-Dimethylbutanoyl)-3-hydroxy-2-methylphenoxy)methyl)pyridin-2-yl)benzoic acid]
- EC50 (mGlu3): 0.203 ± 0.001 µM
- Emax (mGlu3): 112 ± 3.8%
- EC50 (mGlu2): 0.23 ± 0.002 µM
- Emax (mGlu2): 108 ± 1.2%

- Emax (mGlu3): 62.6 ± 9.7%
- Emax (mGlu2): 82 ± 5.1%
Compound: CC(C)(C)CC(=O)c1ccc(OCc2cccc(-c3cccc(C(=O)O)c3)c2)c(I)c1O [Compound 192, 3′-((4-(3,3-Dimethylbutanoyl)-3-hydroxy-2-iodophenoxy)methyl)-[1,1′-biphenyl]-3-carboxylic acid]
